Laboratory results: publication PMC10999543, “Identification of kinase modulators as host-directed therapeutics against intracellular methicillin-resistant Staphylococcus aureus” (Frontiers in Cellular and Infection Microbiology, 2024)
Read-outs that look alike come from different tables or passages of the source.

What was measured:
intracellular MRSA = format: cell-based, Staphylococcus aureus; conditions: for %GFP+ rep 1 / z-scoreMRSA+ rep 1: replicate 1; for %GFP+ rep 2 / z-scoreMRSA+ rep 2: replicate 2; for %GFP+ rep 3 / z-scoreMRSA+ rep 3: replicate 3; for z-scoreMRSA+ mean: mean of 3 replicates
How it was run: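 HeLa cells infected with GFP-MRSA (MOI ~6.8), gentamicin-cleared, then incubated overnight at 37°C with inhibitors plus 5 µg/ml gentamicin; DMSO as negative control, triplicates. Flow cytometry gave % GFP-positive cells and cell count (viability surrogate); hits by plate z-score (MRSA ≤ -2, HeLa count ≥ -3).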

HeLa cells = experiment: Compound screen by flow cytometry: HeLa cell count as surrogate readout of cell viability (z-scoreHeLa); format: cell-based, human; conditions: for cell count rep 1 / z-scoreHeLa rep 1: replicate 1; for cell count rep 2 / z-scoreHeLa rep 2: replicate 2; for cell count rep 3 / z-scoreHeLa rep 3: replicate 3; for z-scoreHeLa mean: mean of 3 replicates
How it was run: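 HeLa cells were infected with GFP-MRSA (mean MOI 6.8 ± 4.6) for 1 h, and extracellular bacteria were killed with 30 µg/ml gentamicin. Cells were then incubated overnight with kinase inhibitors in 5 µg/ml gentamicin, in triplicate against DMSO controls. Flow-cytometric cell count served as a viability surrogate, expressed as a plate z-score.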

[1] = PKIS compound screen raw data, MRSA-infected HeLa cells
[2] = PKIS compound screen, MRSA-infected HeLa cells
[3] = PKIS compound screen, Yes/No call (effect without cell death)
[4] = PKIS compound screen, Yes/No call on z-scoreMRSA+
[5] = PKIS compound screen raw data, HeLa cell count
[6] = PKIS compound screen, HeLa cell count
[7] = PKIS compound screen, Yes/No call on z-scoreHeLa
[8] = Yes/No: effect without cell death
[9] = compound screen, MRSA-infected HeLa cells
[10] = compound screen, HeLa cell count
[11] = PKIS compounds raw data, MRSA-infected HeLa cells
[12] = PKIS compounds raw data, HeLa cell count
[13] = PKIS compound screen, Yes/No call

SMILES | %GFP+ rep 1 (intracellular MRSA; [1]) [%] | %GFP+ rep 2 (intracellular MRSA; [1]) [%] | %GFP+ rep 3 (intracellular MRSA; [1]) [%] | z-scoreMRSA+ mean (intracellular MRSA; [2]) | z-scoreMRSA+ rep 1 (intracellular MRSA; [2]) | z-scoreMRSA+ rep 2 (intracellular MRSA; [2]) | z-scoreMRSA+ rep 3 (intracellular MRSA; [2]) | hit (intracellular MRSA; [3]) | effect (intracellular MRSA; [4]) | cell count rep 1 (HeLa cells; [5]) | cell count rep 2 (HeLa cells; [5]) | cell count rep 3 (HeLa cells; [5]) | z-scoreHeLa mean (HeLa cells; [6]) | z-scoreHeLa rep 1 (HeLa cells; [6]) | z-scoreHeLa rep 2 (HeLa cells; [6]) | z-scoreHeLa rep 3 (HeLa cells; [6]) | cell death (HeLa cells; [7]) | effect (intracellular MRSA; Yes/No call from z-scoreMRSA+) | hit (intracellular MRSA; [8]) | z-scoreMRSA+ mean (intracellular MRSA; [9]) | further results
CN1CCC(n2cnc(-c3ccc(F)cc3)c2-c2ccnc(Nc3ccccc3)n2)CC1 [SB-236687] | 10.0 | 12.2 | 12.7 | -2.18 | -2.49 | -1.90 | -2.16 | Yes | Yes | 21592 | 24622 | 40771 | -0.54 | 0.22 | -1.90 | 0.04 | No |  |  |  | 
COc1cccc(NC(=O)NC2CCN(c3ccnc(Nc4cc(OC)c(OC)c(OC)c4)n3)C2)c1 (centres unmarked) [GSK1379763A] | 13.0 | 15.3 | 16.3 | -1.34 | -1.54 | -1.12 | -1.35 | No | No | 25281 | 24740 | 24420 | 0.05 | -0.83 | -0.09 | 1.07 | No |  |  |  | 
CCS(=O)(=O)c1ccc(OC)c(Nc2ncc(-c3cccc(-c4ccccc4F)c3)o2)c1 [GW678313X] | 14.1 | 12.8 | 13.1 | -1.65 | -1.19 | -1.72 | -2.04 | No | No | 18271 | 31542 | 48427 | 0.12 | -0.28 | -0.61 | 1.26 | No |  |  |  | 
O=C(Nc1ccc(Oc2ccc3nc(NC(=O)c4ccco4)[nH]c3c2)cc1)Nc1cc(C(F)(F)F)ccc1F [GW683134A] | 9.6 | 11.2 | 12.6 |  |  |  |  |  |  | 24828 | 19604 | 15141 |  |  |  |  |  | Yes | Yes | -2.35 | z-scoreMRSA+ rep 1 (intracellular MRSA; [9]): -2.44; z-scoreMRSA+ rep 2 (intracellular MRSA; [9]): -2.24; z-scoreMRSA+ rep 3 (intracellular MRSA; [9]): -2.36; cell death (HeLa cells; Yes/No call from z-scoreHeLa): No; z-scoreHeLa mean (HeLa cells; [10]): -0.87; z-scoreHeLa rep 1 (HeLa cells; [10]): -0.91; z-scoreHeLa rep 2 (HeLa cells; [10]): -0.97; z-scoreHeLa rep 3 (HeLa cells; [10]): -0.74
COc1ccccc1-c1cc(/C=C2\C(=O)Nc3ncc(Br)cc32)cc(Br)c1O [GW442130X] |  |  |  |  |  |  |  |  |  |  |  |  |  |  |  |  |  | No | No | 0.33 | %GFP+ rep 1 (intracellular MRSA; [11]): 14.9%; %GFP+ rep 2 (intracellular MRSA; [11]): 16.4%; %GFP+ rep 3 (intracellular MRSA; [11]): 14.1%; z-scoreMRSA+ rep 1 (intracellular MRSA; [9]): 0.55; z-scoreMRSA+ rep 2 (intracellular MRSA; [9]): 0.97; z-scoreMRSA+ rep 3 (intracellular MRSA; [9]): -0.53; cell count rep 1 (HeLa cells; [12]): 3648; cell count rep 2 (HeLa cells; [12]): 4731; cell count rep 3 (HeLa cells; [12]): 6669; cell death (HeLa cells; Yes/No call from z-scoreHeLa): No; z-scoreHeLa mean (HeLa cells; [10]): -0.27; z-scoreHeLa rep 1 (HeLa cells; [10]): -1.02; z-scoreHeLa rep 2 (HeLa cells; [10]): 0.35; z-scoreHeLa rep 3 (HeLa cells; [10]): -0.14
CC(C)c1nc(-c2cccc(NS(=O)(=O)c3ccccc3)c2)c(-c2ccnc(Nc3ccc4c(c3)CN(C)CC4)n2)s1 [GSK1649598A] | 10.0 | 11.1 | 12.2 | -2.36 | -2.35 | -2.27 | -2.47 | No and Yes | Yes | 27349 | 20392 | 19957 | -0.37 | -0.48 | -0.84 | 0.20 | No |  |  |  | effect (intracellular MRSA; [13]): No; z-scoreMRSA+ mean (intracellular MRSA; PKIS compound screen): -0.25; z-scoreMRSA+ rep 1 (intracellular MRSA; PKIS compound screen): -0.30; z-scoreMRSA+ rep 2 (intracellular MRSA; PKIS compound screen): -0.22; z-scoreMRSA+ rep 3 (intracellular MRSA; PKIS compound screen): -0.22; %GFP+ rep 1 (intracellular MRSA; [11]): 25.5%; %GFP+ rep 2 (intracellular MRSA; [11]): 24.9%; %GFP+ rep 3 (intracellular MRSA; [11]): 26.1%; cell death (HeLa cells; [13]): No; z-scoreHeLa mean (HeLa cells; PKIS compound screen): -0.86; z-scoreHeLa rep 1 (HeLa cells; PKIS compound screen): -1.22; z-scoreHeLa rep 2 (HeLa cells; PKIS compound screen): -0.62; z-scoreHeLa rep 3 (HeLa cells; PKIS compound screen): -0.73; cell count rep 1 (HeLa cells; [12]): 4018; cell count rep 2 (HeLa cells; [12]): 5078; cell count rep 3 (HeLa cells; [12]): 4439
COC(=O)Nc1nc2ccc(Oc3ccc(NC(=O)Nc4cc(C(F)(F)F)ccc4F)cn3)cc2[nH]1 [GW681170A] | 25.2 | 20.8 | 21.7 |  |  |  |  |  |  | 5819 | 4937 | 6470 |  |  |  |  |  | No | No | -0.20 | z-scoreMRSA+ rep 1 (intracellular MRSA; [9]): -0.0173; z-scoreMRSA+ rep 2 (intracellular MRSA; [9]): -0.44; z-scoreMRSA+ rep 3 (intracellular MRSA; [9]): -0.15; cell death (HeLa cells; Yes/No call from z-scoreHeLa): No; z-scoreHeLa mean (HeLa cells; [10]): 0.78; z-scoreHeLa rep 1 (HeLa cells; [10]): 1.06; z-scoreHeLa rep 2 (HeLa cells; [10]): 0.49; z-scoreHeLa rep 3 (HeLa cells; [10]): 0.78
CC(C)c1nc(-c2ccc(F)c(NS(=O)(=O)c3c(F)cccc3F)c2)c(-c2ccnc(Nc3ccc(N4CCOCC4)nc3)n2)s1 [GSK1804250A] | 10.3 | 10.8 | 13.4 | -2.25 | -2.27 | -2.35 | -2.14 | No and Yes | Yes | 20970 | 16426 | 18426 | -1.06 | -1.56 | -1.52 | -0.10 | No |  |  |  | effect (intracellular MRSA; [13]): No; z-scoreMRSA+ mean (intracellular MRSA; PKIS compound screen): -0.36; z-scoreMRSA+ rep 1 (intracellular MRSA; PKIS compound screen): -0.40; z-scoreMRSA+ rep 2 (intracellular MRSA; PKIS compound screen): -0.43; z-scoreMRSA+ rep 3 (intracellular MRSA; PKIS compound screen): -0.25; %GFP+ rep 1 (intracellular MRSA; [11]): 25.0%; %GFP+ rep 2 (intracellular MRSA; [11]): 23.8%; %GFP+ rep 3 (intracellular MRSA; [11]): 25.9%; cell death (HeLa cells; [13]): No; z-scoreHeLa mean (HeLa cells; PKIS compound screen): -1.04; z-scoreHeLa rep 1 (HeLa cells; PKIS compound screen): -1.27; z-scoreHeLa rep 2 (HeLa cells; PKIS compound screen): -0.95; z-scoreHeLa rep 3 (HeLa cells; PKIS compound screen): -0.90; cell count rep 1 (HeLa cells; [12]): 3939; cell count rep 2 (HeLa cells; [12]): 4582; cell count rep 3 (HeLa cells; [12]): 4170
COc1cc(Nc2nccc(N3CCC(NC(=O)c4cc5ccccc5s4)C3)n2)cc(OC)c1OC (centres unmarked) [GSK1379760A] | 16.3 | 17.7 | 19.1 | -0.32 | -0.49 | -0.25 | -0.21 | No | No | 31010 | 36298 | 43524 | 0.80 | 1.65 | 0.28 | 0.48 | No |  |  |  | 
